Data on two molecules can be found in ChEMBL document CHEMBL4052645, “Discovery of potent and efficacious pyrrolopyridazines as dual JAK1/3 inhibitors” (Bioorg Med Chem Lett, 2017).

Molecules are shown by their SMILES. pIC50: −log10 of the molar value.

Test [1] deals with T1, Tyrosine-protein kinase JAK3 (Homo sapiens, UniProt P52333).
T1 sequence (P52333 whole entry): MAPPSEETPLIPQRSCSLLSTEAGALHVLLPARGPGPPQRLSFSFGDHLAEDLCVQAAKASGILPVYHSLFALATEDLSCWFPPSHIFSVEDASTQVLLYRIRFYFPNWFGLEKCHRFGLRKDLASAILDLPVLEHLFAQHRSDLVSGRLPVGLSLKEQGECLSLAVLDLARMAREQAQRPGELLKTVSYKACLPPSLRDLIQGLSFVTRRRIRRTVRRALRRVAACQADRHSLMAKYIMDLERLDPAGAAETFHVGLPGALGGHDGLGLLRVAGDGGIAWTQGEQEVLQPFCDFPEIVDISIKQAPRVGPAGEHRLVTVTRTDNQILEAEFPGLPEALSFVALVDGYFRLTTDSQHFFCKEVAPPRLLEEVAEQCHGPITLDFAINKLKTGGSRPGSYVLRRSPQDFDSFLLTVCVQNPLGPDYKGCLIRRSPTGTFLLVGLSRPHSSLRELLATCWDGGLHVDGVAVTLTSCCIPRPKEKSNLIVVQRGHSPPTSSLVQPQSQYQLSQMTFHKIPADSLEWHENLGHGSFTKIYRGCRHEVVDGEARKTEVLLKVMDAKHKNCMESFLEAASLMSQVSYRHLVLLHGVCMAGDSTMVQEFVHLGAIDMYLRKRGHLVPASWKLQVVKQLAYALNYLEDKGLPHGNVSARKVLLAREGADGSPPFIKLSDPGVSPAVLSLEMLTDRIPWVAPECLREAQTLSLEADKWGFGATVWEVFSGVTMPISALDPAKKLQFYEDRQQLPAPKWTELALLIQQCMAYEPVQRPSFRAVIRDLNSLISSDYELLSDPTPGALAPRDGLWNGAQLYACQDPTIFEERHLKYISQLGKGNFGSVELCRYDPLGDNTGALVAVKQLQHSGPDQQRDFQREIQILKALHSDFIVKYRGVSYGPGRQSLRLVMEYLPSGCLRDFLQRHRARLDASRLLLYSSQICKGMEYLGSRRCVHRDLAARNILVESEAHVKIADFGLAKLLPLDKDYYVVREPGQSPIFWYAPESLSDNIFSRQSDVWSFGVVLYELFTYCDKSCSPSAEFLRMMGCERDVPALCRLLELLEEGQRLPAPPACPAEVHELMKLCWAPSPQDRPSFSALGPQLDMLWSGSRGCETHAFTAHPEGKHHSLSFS
Put plainly: Inhibition of JAK3 (unknown origin) using CSKtide as substrate after 30 mins in presence of [gamma33P]ATP by liquid scintillation counting method.

Test [2] has as its target Serine/threonine-protein kinase RIO1 (Homo sapiens) (UniProt Q9BRS2). The test can be described thus: Inhibition of full length human RIOK1 (M1 to K568 residues) expressed in bacterial expression system assessed as residual activity at 50 nM by KINOMEscan assay relative to control.
Test [3] deals with SRSF protein kinase 3 (Homo sapiens) (UniProt Q9UPE1). Put plainly: Inhibition of wild-type human partial length MSSK1 (P41 to P567 residues) expressed in bacterial expression system assessed as residual activity at 50 nM by Kinomescan method relative to control.
Sequence of SRSF protein kinase 3 (Homo sapiens) (Q9UPE1 whole entry, the tested form may be a part): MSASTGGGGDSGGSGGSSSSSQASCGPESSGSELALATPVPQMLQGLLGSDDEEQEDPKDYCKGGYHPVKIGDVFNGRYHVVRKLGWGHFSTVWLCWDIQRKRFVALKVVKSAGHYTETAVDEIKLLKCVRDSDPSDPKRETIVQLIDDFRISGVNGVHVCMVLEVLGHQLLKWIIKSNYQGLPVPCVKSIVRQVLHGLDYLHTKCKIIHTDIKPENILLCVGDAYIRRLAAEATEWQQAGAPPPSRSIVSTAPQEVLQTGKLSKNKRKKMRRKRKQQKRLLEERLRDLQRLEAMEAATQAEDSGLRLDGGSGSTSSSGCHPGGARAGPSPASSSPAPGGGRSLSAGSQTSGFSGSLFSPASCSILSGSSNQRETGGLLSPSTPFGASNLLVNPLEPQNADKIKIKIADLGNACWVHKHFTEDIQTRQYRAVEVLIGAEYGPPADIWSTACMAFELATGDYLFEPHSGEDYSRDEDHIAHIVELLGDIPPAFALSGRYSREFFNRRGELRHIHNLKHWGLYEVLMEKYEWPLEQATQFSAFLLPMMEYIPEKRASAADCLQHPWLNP
Test [4] has as its target Serine/threonine-protein kinase MARK2 (Homo sapiens) (UniProt Q7KZI7). Put plainly: Inhibition of wild-type human partial length MARK2 (M1 to R450 residues) expressed in bacterial expression system assessed as residual activity at 50 nM by Kinomescan method relative to control.
The target of test [5] is Tyrosine-protein kinase Srms (Homo sapiens) (UniProt Q9H3Y6). Put plainly: Inhibition of wild-type human partial length SRMS (L208 to P488 residues) expressed in mammalian expression system assessed as residual activity at 50 nM by Kinomescan method relative to control.
Test [6] deals with Serine/threonine-protein kinase 35 (Homo sapiens) (UniProt Q8TDR2). Put plainly: Inhibition of wild-type human partial length CLIK1 (G182 to A534 residues) expressed in bacterial expression system assessed as residual activity at 50 nM by Kinomescan method relative to control.
Sequence of Serine/threonine-protein kinase 35 (Homo sapiens) (Q8TDR2 whole entry, the tested form may be a part): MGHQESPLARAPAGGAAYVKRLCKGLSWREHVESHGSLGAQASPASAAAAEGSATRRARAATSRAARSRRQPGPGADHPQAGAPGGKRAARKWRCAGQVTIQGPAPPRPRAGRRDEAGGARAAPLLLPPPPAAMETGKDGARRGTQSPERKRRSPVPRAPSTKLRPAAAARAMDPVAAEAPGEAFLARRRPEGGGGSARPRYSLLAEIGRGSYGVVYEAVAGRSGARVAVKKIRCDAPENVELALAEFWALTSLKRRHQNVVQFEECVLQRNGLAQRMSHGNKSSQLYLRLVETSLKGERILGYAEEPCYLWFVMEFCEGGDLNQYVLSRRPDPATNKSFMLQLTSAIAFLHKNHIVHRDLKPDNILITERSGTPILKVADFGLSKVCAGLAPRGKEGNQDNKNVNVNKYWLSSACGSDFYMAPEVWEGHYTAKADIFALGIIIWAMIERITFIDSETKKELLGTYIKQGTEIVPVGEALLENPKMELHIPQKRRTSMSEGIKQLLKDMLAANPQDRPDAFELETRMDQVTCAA
Test [7] addresses Mitogen-activated protein kinase kinase kinase 9 (Homo sapiens) (UniProt P80192). Put plainly: Inhibition of wild-type human partial length MLK1 (V88 to W426 residues) expressed in bacterial expression system assessed as residual activity at 50 nM by Kinomescan method relative to control.
Test [8] has as its target Ephrin type-A receptor 2 (Homo sapiens) (UniProt P29317). Put plainly: Inhibition of wild-type human partial length EPHA2 (T593 to V891 residues) expressed in bacterial expression system assessed as residual activity at 50 nM by Kinomescan method relative to control.
Test [9] addresses 3-phosphoinositide-dependent protein kinase 1 (Homo sapiens) (UniProt O15530). The test can be described thus: Inhibition of wild-type human full length PDK1 (M1 to Q556 residues) expressed in bacterial expression system assessed as residual activity at 50 nM by Kinomescan method relative to control.
In test [10] the target is Tyrosine-protein kinase Lck (Homo sapiens) (UniProt P06239). Put plainly: Inhibition of wild-type human partial length LCK (R207 to P509 residues) expressed in bacterial expression system assessed as residual activity at 50 nM by Kinomescan method relative to control.
Sequence of Tyrosine-protein kinase Lck (Homo sapiens) (P06239 2-509 limits assumed): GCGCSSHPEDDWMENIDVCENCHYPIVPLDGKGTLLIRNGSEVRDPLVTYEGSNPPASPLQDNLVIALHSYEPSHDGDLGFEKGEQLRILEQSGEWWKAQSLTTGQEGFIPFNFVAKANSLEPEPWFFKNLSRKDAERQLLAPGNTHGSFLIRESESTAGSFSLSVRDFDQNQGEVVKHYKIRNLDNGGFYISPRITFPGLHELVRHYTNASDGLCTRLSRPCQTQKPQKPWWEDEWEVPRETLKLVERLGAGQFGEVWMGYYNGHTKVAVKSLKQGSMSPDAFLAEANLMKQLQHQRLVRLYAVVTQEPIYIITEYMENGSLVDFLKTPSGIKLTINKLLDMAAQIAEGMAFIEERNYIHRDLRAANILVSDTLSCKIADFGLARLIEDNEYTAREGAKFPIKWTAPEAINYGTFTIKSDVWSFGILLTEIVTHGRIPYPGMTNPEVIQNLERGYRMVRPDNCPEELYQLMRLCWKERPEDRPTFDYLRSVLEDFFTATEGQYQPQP
The target of test [11] is Aurora kinase A (Homo sapiens) (UniProt O14965). Put plainly: Inhibition of wild-type human partial length AURA (E122 to K401 residues) expressed in mammalian expression system assessed as residual activity at 50 nM by Kinomescan method relative to control.
Test [12] deals with Mitogen-activated protein kinase 3 (Homo sapiens) (UniProt P27361). The test can be described thus: Inhibition of wild-type human full length ERK1 (M1 to P379 residues) expressed in bacterial expression system assessed as residual activity at 50 nM by Kinomescan method relative to control.
For test [13], the target named is Cyclin-dependent kinase 3 (Homo sapiens) (UniProt Q00526). Put plainly: Inhibition of wild-type human full length CDK3 (M1 to H305 residues) expressed in bacterial expression system assessed as residual activity at 50 nM by Kinomescan method relative to control.
In test [14] the target is Activin receptor type-1 (Homo sapiens) (UniProt Q04771). Put plainly: Inhibition of wild-type human ALK2 (C188 to C509 residues) expressed in bacterial expression system assessed as residual activity at 50 nM by Kinomescan method relative to control.
Test [15] addresses Microtubule-associated serine/threonine-protein kinase 1 (Homo sapiens) (UniProt Q9Y2H9). Put plainly: Inhibition of wild-type human partial length MAST1 (S346 to V730 residues) expressed in mammalian expression system assessed as residual activity at 50 nM by Kinomescan method relative to control.
Test [16] addresses Transient receptor potential cation channel subfamily M member 6 (Homo sapiens) (UniProt Q9BX84). The test can be described thus: Inhibition of wild-type human partial length TRPM6 (Q1723 to I1998 residues) expressed in mammalian expression system assessed as residual activity at 50 nM by Kinomescan method relative to control.
For test [17], the target named is Mitogen-activated protein kinase kinase kinase 19 (Homo sapiens) (UniProt Q56UN5). Put plainly: Inhibition of wild-type human partial length YSK4 (T1019 to H1328 residues) expressed in mammalian expression system assessed as residual activity at 50 nM by Kinomescan method relative to control.

Sequence of Serine/threonine-protein kinase RIO1 (Homo sapiens) (Q9BRS2 whole entry, the tested form may be a part): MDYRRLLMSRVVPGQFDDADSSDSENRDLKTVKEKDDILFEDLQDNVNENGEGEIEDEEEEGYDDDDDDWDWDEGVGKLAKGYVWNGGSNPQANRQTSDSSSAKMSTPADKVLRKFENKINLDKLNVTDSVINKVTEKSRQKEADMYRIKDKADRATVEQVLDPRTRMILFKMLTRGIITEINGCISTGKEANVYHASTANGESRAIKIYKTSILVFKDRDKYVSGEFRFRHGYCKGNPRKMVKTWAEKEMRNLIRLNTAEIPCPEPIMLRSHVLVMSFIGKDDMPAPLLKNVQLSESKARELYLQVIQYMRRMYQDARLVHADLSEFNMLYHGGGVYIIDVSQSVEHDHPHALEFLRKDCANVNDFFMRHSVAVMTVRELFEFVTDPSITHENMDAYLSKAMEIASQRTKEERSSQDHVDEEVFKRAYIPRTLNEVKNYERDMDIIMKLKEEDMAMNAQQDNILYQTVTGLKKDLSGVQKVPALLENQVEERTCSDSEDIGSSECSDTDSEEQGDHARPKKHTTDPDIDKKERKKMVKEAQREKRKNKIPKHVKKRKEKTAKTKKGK
Sequence of Transient receptor potential cation channel subfamily M member 6 (Homo sapiens) (Q9BX84 whole entry, the tested form may be a part): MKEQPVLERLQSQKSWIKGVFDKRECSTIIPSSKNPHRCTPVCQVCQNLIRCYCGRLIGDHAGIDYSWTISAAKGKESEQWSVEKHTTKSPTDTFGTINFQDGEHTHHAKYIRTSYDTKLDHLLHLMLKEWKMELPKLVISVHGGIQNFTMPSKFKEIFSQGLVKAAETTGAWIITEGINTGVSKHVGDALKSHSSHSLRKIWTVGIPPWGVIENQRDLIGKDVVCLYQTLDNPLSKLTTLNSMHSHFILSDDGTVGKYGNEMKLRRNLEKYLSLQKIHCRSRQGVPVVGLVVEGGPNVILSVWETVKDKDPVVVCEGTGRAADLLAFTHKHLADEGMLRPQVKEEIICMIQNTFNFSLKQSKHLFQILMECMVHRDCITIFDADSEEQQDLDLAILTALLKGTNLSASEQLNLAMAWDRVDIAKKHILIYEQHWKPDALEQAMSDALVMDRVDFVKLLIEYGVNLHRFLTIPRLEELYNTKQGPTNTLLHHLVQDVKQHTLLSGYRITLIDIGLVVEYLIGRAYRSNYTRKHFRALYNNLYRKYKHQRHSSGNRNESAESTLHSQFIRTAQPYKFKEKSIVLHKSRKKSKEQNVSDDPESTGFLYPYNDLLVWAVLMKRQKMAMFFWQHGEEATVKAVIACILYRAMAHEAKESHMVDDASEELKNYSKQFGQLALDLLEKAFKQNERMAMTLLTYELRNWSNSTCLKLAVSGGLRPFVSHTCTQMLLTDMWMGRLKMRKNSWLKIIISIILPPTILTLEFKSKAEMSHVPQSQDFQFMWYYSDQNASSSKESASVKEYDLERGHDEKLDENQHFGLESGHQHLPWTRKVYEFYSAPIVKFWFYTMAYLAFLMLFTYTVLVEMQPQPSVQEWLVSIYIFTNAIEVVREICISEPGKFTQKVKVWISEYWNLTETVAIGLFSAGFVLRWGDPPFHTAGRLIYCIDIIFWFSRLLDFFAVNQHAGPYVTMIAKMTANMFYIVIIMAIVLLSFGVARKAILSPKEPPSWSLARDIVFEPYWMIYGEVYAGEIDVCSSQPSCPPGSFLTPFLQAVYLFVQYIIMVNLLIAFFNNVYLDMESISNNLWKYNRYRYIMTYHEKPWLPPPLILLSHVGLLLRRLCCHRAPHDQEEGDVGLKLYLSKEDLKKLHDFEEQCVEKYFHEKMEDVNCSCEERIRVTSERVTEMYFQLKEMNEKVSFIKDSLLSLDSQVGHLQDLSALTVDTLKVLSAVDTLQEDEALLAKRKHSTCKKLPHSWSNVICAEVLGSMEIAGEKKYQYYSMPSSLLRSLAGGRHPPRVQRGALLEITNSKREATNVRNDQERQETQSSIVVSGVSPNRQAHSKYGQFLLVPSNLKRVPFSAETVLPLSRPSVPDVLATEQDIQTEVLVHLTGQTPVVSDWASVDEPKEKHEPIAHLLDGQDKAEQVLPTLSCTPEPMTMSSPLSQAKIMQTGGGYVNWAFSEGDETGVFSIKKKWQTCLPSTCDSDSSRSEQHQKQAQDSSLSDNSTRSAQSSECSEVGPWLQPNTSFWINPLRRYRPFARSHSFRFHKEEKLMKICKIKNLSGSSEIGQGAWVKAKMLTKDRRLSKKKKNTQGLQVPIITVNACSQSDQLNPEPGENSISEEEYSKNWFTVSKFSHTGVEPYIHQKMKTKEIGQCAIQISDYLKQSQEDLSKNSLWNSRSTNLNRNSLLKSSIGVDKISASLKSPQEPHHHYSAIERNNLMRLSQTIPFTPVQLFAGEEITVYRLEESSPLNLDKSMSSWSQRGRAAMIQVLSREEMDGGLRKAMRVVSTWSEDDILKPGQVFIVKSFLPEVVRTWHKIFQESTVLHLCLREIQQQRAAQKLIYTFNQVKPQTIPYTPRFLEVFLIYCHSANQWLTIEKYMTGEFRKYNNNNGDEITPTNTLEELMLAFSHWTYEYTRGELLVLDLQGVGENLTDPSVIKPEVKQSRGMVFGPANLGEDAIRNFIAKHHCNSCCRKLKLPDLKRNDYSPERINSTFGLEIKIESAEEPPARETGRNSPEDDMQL
Sequence of Serine/threonine-protein kinase MARK2 (Homo sapiens) (Q7KZI7 whole entry, the tested form may be a part): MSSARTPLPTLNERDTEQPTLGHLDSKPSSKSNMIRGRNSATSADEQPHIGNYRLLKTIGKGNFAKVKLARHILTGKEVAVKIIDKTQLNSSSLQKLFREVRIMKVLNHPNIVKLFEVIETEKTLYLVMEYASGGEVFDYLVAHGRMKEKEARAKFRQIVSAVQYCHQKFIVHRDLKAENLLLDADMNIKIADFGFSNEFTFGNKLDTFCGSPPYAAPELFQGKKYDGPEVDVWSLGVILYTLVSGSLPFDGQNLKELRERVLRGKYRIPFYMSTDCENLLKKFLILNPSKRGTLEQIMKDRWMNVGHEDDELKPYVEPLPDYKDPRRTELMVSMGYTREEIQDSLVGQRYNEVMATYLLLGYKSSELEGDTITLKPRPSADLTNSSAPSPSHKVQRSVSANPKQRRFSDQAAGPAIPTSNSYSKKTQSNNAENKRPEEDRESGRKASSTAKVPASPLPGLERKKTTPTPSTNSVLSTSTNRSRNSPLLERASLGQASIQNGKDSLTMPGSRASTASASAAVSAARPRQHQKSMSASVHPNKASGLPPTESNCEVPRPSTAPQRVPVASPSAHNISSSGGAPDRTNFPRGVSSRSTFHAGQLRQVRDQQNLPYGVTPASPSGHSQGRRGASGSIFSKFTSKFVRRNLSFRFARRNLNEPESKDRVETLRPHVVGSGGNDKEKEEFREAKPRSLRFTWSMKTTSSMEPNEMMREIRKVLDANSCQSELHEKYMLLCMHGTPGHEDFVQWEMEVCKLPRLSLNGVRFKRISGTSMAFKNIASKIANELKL

With `COc1ccc(-c2cc3c(N[C@@H]4CC[C@](C)(N)C4(C)C)c(C(N)=O)cnn3c2)cn1`, the pIC50 in test [1] was 9.05. The Activity in test [2] turned out to be 69%; in test [3], 100%; in [4], 98%; in test [5], 94%; in test [6] it was 87%; in test [7] it was 90%. The Activity in [8] was determined as 100%; in [9] it was 96%; in test [10], 100%; in test [11], 100%; in test [12] it was 100%; in [13], 94%. Further, the Activity in test [14] stood at 96%; in [15], 98%; in test [16], 90%; in test [17], 98%.

For the molecule `CC1(C)[C@H](Nc2c(C(N)=O)cnn3cc(-c4ccccc4)cc23)CC[C@]1(C)N`, in [1], the pIC50 is 9.05. The Activity in [2] came out at 14%; in [3], 56%; in test [4], 64%; in test [5], 64%; in test [6] it was 74%; in test [7], 78%. For the same molecule, the Activity in test [8] was determined as 81%; in [9] it was 82%; in test [10], 87%; in test [11], 88%; in test [12], 93%; in test [13] it was 98%. The Activity in [14], in [15], in [16] and in [17] was 100% each time.

In general, pIC50 refers to the negative decadic logarithm of the IC50, by convention in mol/L.
